# Literature values as cited in patent US20030064122A1 (priority 2001, published 2003).
# System: nasal mucosa of men and women
# Details: introduced to the nasal mucosa of men and women
structure (smiles),measurement,value
"COc1cc(CNC(=O)CCCCC=CC(C)C)ccc1O [Capsaicin, 8-Methyl-N-vanillyl-6-nonenamide]","amount shown to induce secretion, sneezing, and/or cough",75 micrograms
